Values joined by “and” are separate entries in the source; they are usually repeats but may differ in a detail not shown here. Identical values can stand only once. Inconclusive results and toxic doses are left out. Cut-off read from the data, not from the text of the source: active = T/C of 150% or more; inactive = T/C below 125%.
System: L1210 leukemia ip in BDF1 mice, survival T/C
Test: NCI In Vivo Anticancer Drug Screen. Data for tumor model L1210 Leukemia (intraperitoneal) in B6D2F1 (BDF1) mice
Conditions: endpoint: mean survival time, higher = longer survival
In short: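 Tumor was transplanted into mice, which were then dosed with test compound or vehicle alone. Survival was recorded for each group, and the treated figure was expressed relative to the control figure.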

[1] = dose: 100.0 mg/kg/injection, schedule: Q01DX001 (ip), vehicle: saline with Tween-80
[2] = dose: 200.0 mg/kg/injection, schedule: Q01DX001 (ip), vehicle: saline with Tween-80
[3] = dose: 400.0 mg/kg/injection, schedule: Q01DX001 (ip), vehicle: saline with Tween-80
[4] = dose: 50.0 mg/kg/injection, schedule: Q01DX009 (ip), vehicle: saline with Tween-80
[5] = dose: 100.0 mg/kg/injection, schedule: Q01DX009 (ip), vehicle: saline with Tween-80
[6] = dose: 100.0 mg/kg/injection, schedule: Q01DX001 (ip), vehicle: saline
[7] = dose: 200.0 mg/kg/injection, schedule: Q01DX001 (ip), vehicle: saline
[8] = dose: 400.0 mg/kg/injection, schedule: Q01DX001 (ip), vehicle: saline
[9] = dose: 100.0 mg/kg/injection, schedule: Q01DX001 (ip), vehicle: carboxymethylcellulose (CMC)
[10] = dose: 200.0 mg/kg/injection, schedule: Q01DX001 (ip), vehicle: carboxymethylcellulose (CMC)
[11] = dose: 400.0 mg/kg/injection, schedule: Q01DX001 (ip), vehicle: carboxymethylcellulose (CMC)
[12] = dose: 100.0 mg/kg/injection, schedule: Q04DX002 (ip), vehicle: Klucel (hydroxypropylcellulose) (HPC)
[13] = dose: 200.0 mg/kg/injection, schedule: Q04DX002 (ip), vehicle: Klucel (hydroxypropylcellulose) (HPC)
[14] = dose: 400.0 mg/kg/injection, schedule: Q04DX002 (ip), vehicle: Klucel (hydroxypropylcellulose) (HPC)
[15] = dose: 150.0 mg/kg/injection, schedule: Q01DX009 (ip), vehicle: Klucel (hydroxypropylcellulose) (HPC)

Measured: T/C

CCC1=C/C(=C/c2cccc(OC)c2O)C(=O)S1
inactive: [1] 97 % of control | [2] 97 % of control | [3] 87 % of control

CCCCCC(C)SC#N (stereo not given)
inactive: dose: 25.0 mg/kg/injection, schedule: Q01DX009 (ip), vehicle: saline with Tween-80 107 % of control | [4] 102 % of control | [5] 88 % of control

NC(N)=N/N=C(/C=C/c1ccccc1)c1ccc(Cl)cc1
inactive: dose: 15.0 mg/kg/injection, schedule: Q01DX Z (ip), vehicle: carboxymethylcellulose (CMC) 92 % of control | dose: 30.0 mg/kg/injection, schedule: Q01DX Z (ip), vehicle: carboxymethylcellulose (CMC) 92 % of control | dose: 60.0 mg/kg/injection, schedule: Q01DX Z (ip), vehicle: carboxymethylcellulose (CMC) 95 % of control and 91 % of control | dose: 120.0 mg/kg/injection, schedule: Q01DX Z (ip), vehicle: carboxymethylcellulose (CMC) 101 % of control and 88 % of control | dose: 120.0 mg/kg/injection, schedule: Q01DX Z (oral), vehicle: carboxymethylcellulose (CMC) 96 % of control | dose: 240.0 mg/kg/injection, schedule: Q01DX Z (ip), vehicle: carboxymethylcellulose (CMC) 90 % of control | dose: 240.0 mg/kg/injection, schedule: Q01DX Z (oral), vehicle: carboxymethylcellulose (CMC) 100 % of control | dose: 480.0 mg/kg/injection, schedule: Q01DX Z (oral), vehicle: carboxymethylcellulose (CMC) 105 % of control | dose: 960.0 mg/kg/injection, schedule: Q01DX Z (oral), vehicle: carboxymethylcellulose (CMC) 102 % of control

O=C(CC(CC(=O)c1ccccc1)c1ccccn1)c1ccccc1
inactive: dose: 50.0 mg/kg/injection, schedule: Q01DX001 (ip), vehicle: other 105 % of control | dose: 100.0 mg/kg/injection, schedule: Q01DX001 (ip), vehicle: other 100 % of control | dose: 200.0 mg/kg/injection, schedule: Q01DX001 (ip), vehicle: other 96 % of control | dose: 400.0 mg/kg/injection, schedule: Q01DX001 (ip), vehicle: other 102 % of control

CC(C)(C)N1CCC1C(=O)O (stereo not given)
inactive: [6] 92 % of control | [7] 97 % of control | [8] 97 % of control

NC(=O)NC1C=CC=CC=C1
inactive: dose: 100.0 mg/kg/injection, schedule: Q01DX001 (ip), vehicle: acetone 107 % of control | dose: 200.0 mg/kg/injection, schedule: Q01DX001 (ip), vehicle: acetone 93 % of control | dose: 400.0 mg/kg/injection, schedule: Q01DX001 (ip), vehicle: acetone 98 % of control

COCC(=N)C(C#N)(OC)C(=O)c1ccccc1 (stereo not given)
inactive: dose: 75.0 mg/kg/injection, schedule: Q01DX001 (ip), vehicle: other 101 % of control | dose: 150.0 mg/kg/injection, schedule: Q01DX001 (ip), vehicle: other 90 % of control

Cc1cn(C2CCCO2)c(=O)nc1NO (stereo not given)
inactive: [9] 104 % of control | [10] 95 % of control | [11] 98 % of control

CC(C)(C)C(=O)[CH-]C(=O)C(C)(C)C.CC(C)(C)C(=O)[CH-]C(=O)C(C)(C)C.CC(C)(C)C(=O)[CH-]C(=O)C(C)(C)C.[Er+3]
inactive: dose: 50.0 mg/kg/injection, schedule: Q04DX002 (ip), vehicle: saline with Tween-80 90 % of control | dose: 100.0 mg/kg/injection, schedule: Q04DX002 (ip), vehicle: saline with Tween-80 90 % of control | dose: 200.0 mg/kg/injection, schedule: Q04DX002 (ip), vehicle: saline with Tween-80 90 % of control | dose: 400.0 mg/kg/injection, schedule: Q04DX002 (ip), vehicle: saline with Tween-80 90 % of control

CCOC(=O)C(CCP(=O)(OCC)OCC)P(=O)(OCC)OCC (stereo not given)
inactive: dose: 12.5 mg/kg/injection, schedule: Q04DX002 (ip), vehicle: saline 99 % of control | dose: 25.0 mg/kg/injection, schedule: Q04DX002 (ip), vehicle: saline 96 % of control | dose: 50.0 mg/kg/injection, schedule: Q04DX002 (ip), vehicle: saline 115 % of control | [6] 101 % of control | [7] 95 % of control | [8] 98 % of control

N#CCC(=O)Cc1ccccc1[N+](=O)[O-]
inactive: dose: 100.0 mg/kg/injection, schedule: Q04DX003 (ip), vehicle: saline with Tween-80 95 % of control | dose: 200.0 mg/kg/injection, schedule: Q04DX003 (ip), vehicle: saline with Tween-80 100 % of control | dose: 400.0 mg/kg/injection, schedule: Q04DX003 (ip), vehicle: saline with Tween-80 94 % of control

O=S(=O)(c1ccccc1)C1CC1(c1ccccc1)c1ccccc1 (stereo not given)
inactive: [6] 92 % of control | [7] 93 % of control | [8] 90 % of control

C=C1CC2OC(=O)C(=C)C2C(OC(=O)c2ccccc2)/C=C(\C)CCC1OC(=O)c1ccccc1 (stereo not given)
inactive: [12] 108 % of control | [13] 91 % of control | [14] 97 % of control

c1ccc(OCCOCCOc2ccccc2)cc1
inactive: dose: 75.0 mg/kg/injection, schedule: Q01DX009 (ip), vehicle: Klucel (hydroxypropylcellulose) (HPC) 96 % of control | [12] 98 % of control | [15] 114 % of control | [13] 102 % of control | dose: 300.0 mg/kg/injection, schedule: Q01DX009 (ip), vehicle: Klucel (hydroxypropylcellulose) (HPC) 96 % of control | [14] 91 % of control

CC(/C(=N\N=C(N)N)c1ccccc1)N(C)C (stereo not given)
inactive: dose: 15.0 mg/kg/injection, schedule: Q01DX Z (ip), vehicle: methylcellulose (MC) 94 % of control | dose: 30.0 mg/kg/injection, schedule: Q01DX Z (ip), vehicle: methylcellulose (MC) 108 % of control | dose: 50.0 mg/kg/injection, schedule: Q01DX Z (oral), vehicle: methylcellulose (MC) 100 % of control | dose: 60.0 mg/kg/injection, schedule: Q01DX Z (ip), vehicle: methylcellulose (MC) 95 % of control | dose: 100.0 mg/kg/injection, schedule: Q01DX Z (oral), vehicle: methylcellulose (MC) 86 % of control | dose: 120.0 mg/kg/injection, schedule: Q01DX Z (ip), vehicle: methylcellulose (MC) 88 % of control

COc1cc(/C=C(/C#N)[N+](=O)[O-])ccc1O
inactive: dose: 3.12 mg/kg/injection, schedule: Q01DX009 (ip), vehicle: DMSO 93 % of control | dose: 6.25 mg/kg/injection, schedule: Q01DX009 (ip), vehicle: DMSO 91 % of control | dose: 12.5 mg/kg/injection, schedule: Q01DX009 (ip), vehicle: DMSO 94 % of control | dose: 12.5 mg/kg/injection, schedule: Q04DX003 (ip), vehicle: DMSO 102 % of control | dose: 25.0 mg/kg/injection, schedule: Q01DX009 (ip), vehicle: DMSO 89 % of control | dose: 25.0 mg/kg/injection, schedule: Q04DX003 (ip), vehicle: DMSO 114 % of control | dose: 50.0 mg/kg/injection, schedule: Q01DX009 (ip), vehicle: DMSO 93 % of control | dose: 50.0 mg/kg/injection, schedule: Q04DX003 (ip), vehicle: DMSO 101 % of control

CC1CCCC(c2ccccc2)C1 (stereo not given)
inactive: [1] 97 % of control | [2] 102 % of control | [3] 101 % of control

CC(C)(C)C(=O)NCc1ccccc1
inactive: [1] 100 % of control | [2] 96 % of control | [3] 96 % of control

COc1cc([N+](=O)[O-])ccc1NC(=O)c1ccccc1
inactive: [9] 99 % of control | [10] 101 % of control | [11] 97 % of control

CNCC/C=C1\c2ccccc2CCSc2ccccc21
inactive: dose: 25.0 mg/kg/injection, schedule: Q04DX003 (ip), vehicle: saline 98 % of control | dose: 50.0 mg/kg/injection, schedule: Q04DX003 (ip), vehicle: saline 101 % of control | dose: 100.0 mg/kg/injection, schedule: Q04DX003 (ip), vehicle: saline 95 % of control and 101 % of control

CCCCCCCCCCCCCCCCCCNC(=O)Nc1nccs1
inactive: dose: 100.0 mg/kg/injection, schedule: Q01DX009 (ip), vehicle: Klucel (hydroxypropylcellulose) (HPC) 96 % of control | [15] 86 % of control | [13] 94 % of control | dose: 225.0 mg/kg/injection, schedule: Q01DX009 (ip), vehicle: Klucel (hydroxypropylcellulose) (HPC) 91 % of control | dose: 335.0 mg/kg/injection, schedule: Q01DX009 (ip), vehicle: Klucel (hydroxypropylcellulose) (HPC) 96 % of control | [14] 87 % of control

O=C(NNc1ccccc1)NNc1ccccc1 (tested in a mixture with another compound)
inactive: [4] 95 % of control | [5] 95 % of control | dose: 200.0 mg/kg/injection, schedule: Q01DX009 (ip), vehicle: saline with Tween-80 99 % of control

Source: PubChem BioAssay AID248 (DTP/NCI, 2004)
